Test: active ingredient delivery in PhEur phosphate buffer of pH 6.8 in a USP dissolution tester
Format: physicochemical
Conditions: versus pellets with microcrystalline cellulose (Example 5), EUDRAGIT RS coating, no matrix

SMILES	effect of the modulating substance in the core on active ingredient delivery
O=C(O)CC(O)(CC(=O)O)C(=O)O [citric acid]	accelerating effect
O=C([O-])CCC(=O)[O-].[Na+].[Na+] [sodium succinate]	accelerating effect
CC(=O)[O-].[Na+] [sodium acetate]	accelerating effect
[Cl-].[Na+] [sodium chloride]	reducing effect

— patent US20070042045A1, “Multilayer dosage form comprising a matrix that influences release of a modulatory substance” (ROEHM GBMH & CO. KG, priority 2003, published 2007)
